Results taken from patent US10882860B2, “Treatment of osteoarthritis” (Samumed, LLC, priority 2015, dated 2021).
Marks after values point to notes of the source that are not given here.

Legend:
[1] = design: species or system beagle dogs; conditions: dog, in vivo
Description: The local toxicology of Form 1 of the compound of Formula (I) in dogs was studied. The compound of Formula (I) (Form 1) was administered via single or multiple (9 times) intra-articular (IA) injections as a suspension composition in beagle dogs to evaluate local toxicity.
After IA injection, the right stifle joint was histologically evaluated for inflammation, cartilage health, bone density, etc. Toxicology was evaluated immediately after a single or multiple (3 or 9 once-monthly) IA injections.
The NOAEL for the compound of Formula (I) in this study was considered to be 116 μg/knee.

[2] = test system: Wnt genes TCF7, c-Myc, Axin-2, Ascl 2, and SP5; assay: In vitro Wnt pathway inhibition, qRT-PCR in human MSCs; assay type: cell-based; conditions: 30 nM; 48 hours; fold change vs DMSO; FIG. 15
Description: Human mesenchymal stem cells (MSCs) were plated in 6-well plates in chondrogenic induction medium (Lonza; DMEM, dexamethasone, ascorbate, insulin-transferrin-selenium [ITS supplement], gentamycin-amphotericin [GA-1000], sodium pyruvate, proline and L-glutamine) and treated with the compound of Formula (I) (30 nM) in DMSO or TGF-β3 (20 μg/mL) as a positive control. Cells were incubated at 37° C., 5% CO2 for 48 hours. Cells were pelleted and washed, and total RNA was isolated and purified using RNeasy Plus Mini Kit (Qiagen). cDNA was synthesized from 1 μg of total RNA using QuantiTect Reverse Transcription kit (Qiagen). qRT-PCR was performed with QuantiTect SYBR Green PCR Kit (Qiagen) and gene-specific primers, using CFX384 thermal cycler (Biorad). Transcripts were quantitated by comparative Ct method and normalized to endogenous controls, β-actin and GAPDH. Fold changes were normalized to DMSO treated cells.

[3] = test system: moderate-to-severe symptomatic knee OA subjects; assay: Phase 1 MRI and radiograph study (bone marrow edema, cartilage thickness, joint space width); assay type: in vivo, human; conditions: for Bone Marrow Edema [N(%)]: Baseline Diffuse, Week 12 Diffuse / Bone Marrow Edema [N(%)]: Baseline Diffuse, Week 12 Focal / Bone Marrow Edema [N(%)]: Baseline Diffuse, Week 12 None / Bone Marrow Edema [N(%)]: Baseline Focal, Week 12 Diffuse / Bone Marrow Edema [N(%)]: Baseline Focal, Week 12 Focal / Bone Marrow Edema [N(%)]: Baseline Focal, Week 12 None / Bone Marrow Edema [N(%)]: Baseline None, Week 12 Diffuse / Bone Marrow Edema [N(%)]: Baseline None, Week 12 Focal / Bone Marrow Edema [N(%)]: Baseline None, Week 12 None: MRI; for change from baseline in joint space width (radiograph): Week 24
Excerpt: To assess the safety and efficacy of the compound of Formula (I) (Form 1), magnetic resonance imaging (MM) was used. Safety evaluations included assessment of bone marrow edema by Mill. MM was used to document changes from baseline in total cartilage volume and thickness in the compartments of the target knee joint. Imaging results (safety and exploratory outcomes) in the Phase 1 study are described above.
Knee MRIs were obtained with a 16 channel knee coil on a 3.0T MRI machine using a standard diagnostic protocol (resolution 0.1-0.4 mm). MM scans were collected at the baseline visit (which could occur ≤28 days prior to study injection) and again at Weeks 12 and 24. The sponsor was unblinded after Week 12 for each cohort; site investigators remained blinded.
An exploratory analysis of change in imaging outcomes was conducted using repeated measures analysis of covariance (ANCOVA) adjusting for baseline in the Intention-to-Treat (ITT) population.
As a safety assessment, MRI scans were used to monitor the presence of focal or diffuse bone marrow edema (BME) in all subjects.
Average cartilage thickness over covered subchondral bone was reported for the following four compartments: medial femoral condyles, lateral femoral condyles, medial tibial plateaus, and lateral tibial plateaus.
FIG. 27 depicts the MRI of a knee joint. To determine average cartilage thickness, the cartilage thickness between the subchondral bone area (400 and 404) and the articular cartilage surface (402 and 406) was measured at numerous (˜400-2000) locations in both directions in the parts covered by cartilage (cAB) and averaged. Measurements were performed in three dimensions. Additionally, the average of the lowest 1% of cartilage thickness was also reported for all 4 compartments. The total for both average thickness and lowest thickness were derived by summing each of the 4 compartments' observations.
Radiographs of the target knee were taken during the screening period and at Week 24 to document change from baseline in joint space width (JSW). Table 52 depicts joint space width as measured by radiography for three dosing cohorts and a placebo group.

[4] = test system: rats that underwent ACLT combined with medial meniscectomy (MMx); assay: Efficacy of suspension in rat ACLT + pMMx model (OARSI score); assay type: in vivo; conditions: for OARSI score: vehicle 4.43
Description: The efficacy of the compound of Formula (I) on increasing cartilage thickness was determined in rats that underwent anterior cruciate ligament transection (ACLT) combined with medial meniscectomy (MMx).
Female rats (10-12 weeks old) were subjected to surgical severing of the anterior cruciate, medial collateral and medial meniscotibial ligaments (ACLT+pMMx). One-week post-surgery, after cartilage was allowed to degenerate, the rats were injected intra-articular (IA) with a single dose of a suspension of the compound of Formula (I) (0.1 μg or 0.3 μg or 1 μg). On Days 30, 60, and 90 after injection, joint cartilage, bone and plasma was isolated. Compound from these tissues was extracted using acetonitrile-methanol (70:30) and analyzed for concentrations using LC-MS.
13 weeks after the surgery (12 weeks post-IA injection), knees were isolated, fixed in 10% formalin, decalcified, embedded in paraffin, and sectioned. Sections were stained with Safranin O-Fast Green and histologically evaluated by two blinded observers based on OARSI scoring system (Pritzker et al. (2006) Osteoarthr. Cartil. 14:13-29). The OARSI score measures cartilage matrix loss, fissures, subchondral bone remodeling and bone cyst formation.

CC(C)CC(=O)Nc1cncc(-c2ccc3[nH]nc(-c4nc5c(-c6cccc(F)c6)cncc5[nH]4)c3c2)c1 [compound of Formula (I)]
NOAEL [1]: 116 μg/knee | expression of Wnt genes TCF7, c-Myc, Axin-2, Ascl 2, and SP5 [2]: downregulation | Bone Marrow Edema [N(%)]: Baseline Diffuse, Week 12 Diffuse ([3]; 0.03 mg cohort): 1 (6%) N(%) | Bone Marrow Edema [N(%)]: Baseline Diffuse, Week 12 Focal ([3]; 0.03 mg cohort): 1 (6%) N(%) | Bone Marrow Edema [N(%)]: Baseline Diffuse, Week 12 None ([3]; 0.03 mg cohort): 0 N(%) | Bone Marrow Edema [N(%)]: Baseline Focal, Week 12 Diffuse ([3]; 0.03 mg cohort): 0 N(%) | Bone Marrow Edema [N(%)]: Baseline Focal, Week 12 Focal ([3]; 0.03 mg cohort): 4 (25%) N(%) | Bone Marrow Edema [N(%)]: Baseline Focal, Week 12 None ([3]; 0.03 mg cohort): 0 N(%) | Bone Marrow Edema [N(%)]: Baseline None, Week 12 Diffuse ([3]; 0.03 mg cohort): 0 N(%) | Bone Marrow Edema [N(%)]: Baseline None, Week 12 Focal ([3]; 0.03 mg cohort): 1 (6%) N(%) | Bone Marrow Edema [N(%)]: Baseline None, Week 12 None ([3]; 0.03 mg cohort): 9 (57%) N(%) | Joint space width by radiograph, Week 24 (mm) Actual [Mean (SD)] ([3]; 0.03 mg cohort, N 15): 4.50 (1.72) mm | Joint space width by radiograph, Week 24 (mm) Change from baseline [Mean (SD)] ([3]; 0.03 mg cohort, N 15): 0.00 (0.69) mm | Mean cartilage thickness by MRI, Week 12 (mm) Actual [Mean (SD)] ([3]; 0.03 mg cohort, N 16): 5.38 (1.19) mm | Mean cartilage thickness by MRI, Week 12 (mm) Change from baseline [Mean (SD)] ([3]; 0.03 mg cohort, N 16): −0.06 (0.39) mm | Mean thinnest cartilage by MRI, Week 12 (mm) Actual [Mean (SD)] ([3]; 0.03 mg cohort, N 16): 3.84 (1.57) mm | Mean thinnest cartilage by MRI, Week 12 (mm) Change from baseline [Mean (SD)] ([3]; 0.03 mg cohort, N 16): 0.11 (0.37) mm | area of mean thinnest cartilage by MRI ([3]; 0.03 mg cohort, Week 12): possible trend towards increase | change from baseline in joint space width (radiograph) ([3]; 0.03 mg cohort): no change | Bone Marrow Edema [N(%)]: Baseline Diffuse, Week 12 Diffuse ([3]; 0.07 mg cohort): 0 N(%) | Bone Marrow Edema [N(%)]: Baseline Diffuse, Week 12 Focal ([3]; 0.07 mg cohort): 1 (6%) N(%) | Bone Marrow Edema [N(%)]: Baseline Diffuse, Week 12 None ([3]; 0.07 mg cohort): 0 N(%) | Bone Marrow Edema [N(%)]: Baseline Focal, Week 12 Diffuse ([3]; 0.07 mg cohort): 0 N(%) | Bone Marrow Edema [N(%)]: Baseline Focal, Week 12 Focal ([3]; 0.07 mg cohort): 1 (6%) N(%) | Bone Marrow Edema [N(%)]: Baseline Focal, Week 12 None ([3]; 0.07 mg cohort): 1 (6%) N(%) | Bone Marrow Edema [N(%)]: Baseline None, Week 12 Diffuse ([3]; 0.07 mg cohort): 0 N(%) | Bone Marrow Edema [N(%)]: Baseline None, Week 12 Focal ([3]; 0.07 mg cohort): 2 (13%) N(%) | Bone Marrow Edema [N(%)]: Baseline None, Week 12 None ([3]; 0.07 mg cohort): 11 (69%) N(%) | Joint space width by radiograph, Week 24 (mm) Actual [Mean (SD)] ([3]; 0.07 mg cohort, N 14): 4.16 (1.64) mm | Joint space width by radiograph, Week 24 (mm) Change from baseline [Mean (SD)] ([3]; 0.07 mg cohort, N 14, p = 0.006 versus placebo): 0.59 (0.66)* mm | Mean cartilage thickness by MRI, Week 12 (mm) Actual [Mean (SD)] ([3]; 0.07 mg cohort, N 16): 5.37 (0.71) mm | Mean cartilage thickness by MRI, Week 12 (mm) Change from baseline [Mean (SD)] ([3]; 0.07 mg cohort, N 16): −0.02 (0.25) mm | Mean thinnest cartilage by MRI, Week 12 (mm) Actual [Mean (SD)] ([3]; 0.07 mg cohort, N 16): 3.88 (1.39) mm | Mean thinnest cartilage by MRI, Week 12 (mm) Change from baseline [Mean (SD)] ([3]; 0.07 mg cohort, N 16): 0.10 (0.55) mm | area of mean thinnest cartilage by MRI ([3]; 0.07 mg cohort, Week 12): possible trend towards increase | change from baseline in joint space width (radiograph) ([3]; 0.07 mg cohort): increase | Bone Marrow Edema [N(%)]: Baseline Diffuse, Week 12 Diffuse ([3]; 0.23 mg cohort): 2 (13%) N(%) | Bone Marrow Edema [N(%)]: Baseline Diffuse, Week 12 Focal ([3]; 0.23 mg cohort): 0 N(%) | Bone Marrow Edema [N(%)]: Baseline Diffuse, Week 12 None ([3]; 0.23 mg cohort): 0 N(%) | Bone Marrow Edema [N(%)]: Baseline Focal, Week 12 Diffuse ([3]; 0.23 mg cohort): 0 N(%) | Bone Marrow Edema [N(%)]: Baseline Focal, Week 12 Focal ([3]; 0.23 mg cohort): 8 (50%) N(%) | Bone Marrow Edema [N(%)]: Baseline Focal, Week 12 None ([3]; 0.23 mg cohort): 1 (6%) N(%) | Bone Marrow Edema [N(%)]: Baseline None, Week 12 Diffuse ([3]; 0.23 mg cohort): 0 N(%) | Bone Marrow Edema [N(%)]: Baseline None, Week 12 Focal ([3]; 0.23 mg cohort): 1 (6%) N(%) | Bone Marrow Edema [N(%)]: Baseline None, Week 12 None ([3]; 0.23 mg cohort): 4 (25%) N(%) | Mean cartilage thickness by MRI, Week 12 (mm) Actual [Mean (SD)] ([3]; 0.23 mg cohort, N 15): 5.32 (1.03) mm | Mean cartilage thickness by MRI, Week 12 (mm) Change from baseline [Mean (SD)] ([3]; 0.23 mg cohort, N 15): −0.04 (0.24) mm | Mean thinnest cartilage by MRI, Week 12 (mm) Actual [Mean (SD)] ([3]; 0.23 mg cohort, N 15): 3.01 (1.27) mm | Mean thinnest cartilage by MRI, Week 12 (mm) Change from baseline [Mean (SD)] ([3]; 0.23 mg cohort, N 15): −0.13 (0.30) mm | Joint space width by radiograph, Week 24 (mm) Actual [Mean (SD)] ([3]; 0.23 mg cohort, N 16): 3.47 (1.68) mm | Joint space width by radiograph, Week 24 (mm) Change from baseline [Mean (SD)] ([3]; 0.23 mg cohort, N 16): −0.15 (1.07) mm | change from baseline in joint space width (radiograph) ([3]; 0.23 mg cohort): decrease | exploratory imaging results, dose comparison ([3]; 0.23 mg dose vs 0.03 mg and 0.07 mg doses): less effective | effect on bone marrow edema compared to Placebo ([3]; single IA injection, interim): no appreciable effect | mean cartilage thickness by MRI ([3]; treated subjects, Week 12): no substantial degradation | subjects with improved BME results (focal to none and diffuse to focal) ([3]; treatment groups, baseline to Week 12): 4 | OARSI score ([4]; rat ACLT+pMMx, single IA 0.1 μg suspension, 12 weeks post-injection): 3.13 | OARSI score ([4]; rat ACLT+pMMx, single IA 0.3 μg suspension, 12 weeks post-injection): 2.15 | total OARSI score (against vehicle) ([4]; rat ACLT+pMMx, 0.1, 0.3 or 1 μg, 12 weeks post-injection): dose-dependent reduction | knee histology (Safranin O-Fast Green) ([4]; rat ACLT+pMMx, single IA injection, 12 weeks post-injection): Increased cartilage thickness, decreased fissures, and subchondral bone remodeling | cartilage in safranin O-stained knee section vs control knee ([4]; rat, 0.3 μg, after 12 weeks, FIG. 23B): increased cartilage
